This is an account of results in patent US20260176300A1, “N-ARYLPYRAZOLE NOD2 AGONISTS AS PROMOTERS OF IMMUNE CHECKPOINT INHIBITOR THERAPY” (THE SCRIPPS RESEARCH INSTITUTE, priority 2022, published 2026).

Experiment [1] concerns the target T1, NOD1 (Homo sapiens, UniProt Q9Y239).
T1 construct: host or cells: HEK-293T-derived HEK-Blue NF-kB/SEAP reporter cells
T1 sequence (Q9Y239 1-953): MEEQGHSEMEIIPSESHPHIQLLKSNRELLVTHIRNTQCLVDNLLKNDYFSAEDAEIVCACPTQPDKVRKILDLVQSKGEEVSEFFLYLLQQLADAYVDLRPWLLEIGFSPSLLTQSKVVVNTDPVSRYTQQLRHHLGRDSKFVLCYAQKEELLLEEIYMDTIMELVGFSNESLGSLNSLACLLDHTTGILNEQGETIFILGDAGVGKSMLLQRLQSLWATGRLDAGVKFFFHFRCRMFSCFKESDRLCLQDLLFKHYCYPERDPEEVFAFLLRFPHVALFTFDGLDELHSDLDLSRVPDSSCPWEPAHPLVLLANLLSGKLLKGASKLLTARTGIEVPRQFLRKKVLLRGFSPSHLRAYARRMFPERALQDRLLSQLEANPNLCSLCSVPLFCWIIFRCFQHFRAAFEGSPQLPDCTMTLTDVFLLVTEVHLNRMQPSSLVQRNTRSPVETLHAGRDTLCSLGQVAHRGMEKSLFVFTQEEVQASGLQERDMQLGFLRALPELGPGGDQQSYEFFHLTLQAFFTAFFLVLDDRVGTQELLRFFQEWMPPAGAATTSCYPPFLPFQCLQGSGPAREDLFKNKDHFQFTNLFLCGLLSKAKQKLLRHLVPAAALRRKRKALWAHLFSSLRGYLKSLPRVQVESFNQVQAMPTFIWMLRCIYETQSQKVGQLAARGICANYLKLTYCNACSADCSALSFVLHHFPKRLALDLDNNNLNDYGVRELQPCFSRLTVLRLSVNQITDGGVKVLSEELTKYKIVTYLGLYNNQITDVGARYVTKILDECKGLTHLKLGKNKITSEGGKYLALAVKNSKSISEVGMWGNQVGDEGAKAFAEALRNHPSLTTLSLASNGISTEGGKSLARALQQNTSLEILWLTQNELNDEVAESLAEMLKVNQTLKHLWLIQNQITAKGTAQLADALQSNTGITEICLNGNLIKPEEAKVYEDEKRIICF
As to conditions: relative to iE-DAP; cited from earlier work.

The test system of another experiment is HEK-Blue Null2. Briefly: NULL HEK-Blue NF-κB reporter cell activation assay (control). It is filed as cell-based. Conditions: 10 μM, 16 h (FIG. 5). The protocol:
(§1) FIG. 5(A-B). Lead 3,5-dimethyl-N-arylpyrazole TT007 specifically activates NOD2. A-B, Activation of Null (control) and NOD1-expressing HEK-293T cells treated for 16 h with 10 μM of the indicated compound using a colorimetric assay. ****P<0.0001.
(§2) Cell culture. The following cell lines were used and sourced as follows: HEK-Blue NOD2 (InvivoGen, hkb-hnod2), HEK-Blue NOD1 (InvivoGen, hkb-nod1), HEK-Blue Null2 (hkb-null2), and B16-F10 (ATCC CRL-6475). All cell lines were cultured at 37° C. in 5% CO2 in DMEM (ThermoFisher, 11995065) supplemented with 10% fetal bovine serum (FBS), 100 U mL-1 penicillin, and 100 μg mL-1 streptomycin. Cells were maintained at no greater than 70% confluency and subcultured using TrypLE Express. Cell lines were routinely cultured without antibiotics to ensure no bacterial infection and tested for mycoplasma using a Universal Mycoplasma Detection Kit (ATCC 30-1012K). Primary human peripheral mononuclear blood cells (PBMCs) were cultured at 37° C. in 5% CO2 in RPMI 1640 (ThermoFisher, 61870143) supplemented with 10% FBS. […]
(§3) Reporter cell line activation assay. […] To measure activity, wells were then gently pipetted up and down to mix the conditioned medium, and absorbance from the colorimetric product of the secreted alkaline phosphatase was measured at 630 nm. […] Activity was then measured by absorbance as described above.

A further experiment concerns the target T2, NOD2 (Homo sapiens, UniProt Q9HC29).
T2 construct: host or cells: HEK-293T-derived HEK-Blue NF-kB/SEAP reporter cells
Briefly: NOD2-HEK-Blue NF-κB reporter cell activation assay (NOD2-expressing HEK-293T cells). Type of experiment: cell-based. The text has this:
FIG. 1(A-F). Virtual screening for small molecule NOD2 agonists. A, Docked structure of muramyl dipeptide (MDP) in the leucine-rich repeat (LRR) domain of rabbit NOD2 (pdb 5IRM). […] B, Results of virtual docking approach with reported chemical structures related to MDP. C, Workflow of virtual screening in which a library was generated using carboxylic acids appended to the L-Val-D-Glu dipeptide and then docked to the NOD2 LRR domain. D, Desmuramyl MDP (dMDP) structures resulting from the virtual screen that were synthesized for further screening. Chemicals shown as a pure enantiomer were synthesized as a racemic mixture. E, Activation of NOD2-expressing HEK-293T cells treated for 16 h with 10 µM of the indicated compound using a colorimetric assay. F, Dose-dependent activation of NOD2-expressing HEK-293T cells using the indicated compounds. Numbers in parentheses represent calculated negative log of the half maximal effective concentration (pEC50) values. NOD activation assays were analyzed using a one-way ANOVA with Dunnett's multiple comparisons test compared to the DMSO control. pEC50 values were derived by a three-parameter dose-response nonlinear regression. ****P<0.0001.
FIG. 2(A-G). Structure-activity relationship studies of 3,5-dimethyl-N-arylpyrazole NOD2 agonists. A, Structures of 3,5-dimethyl-N-arylpyrazole structures synthesized for SAR studies. B-F, Dose-dependent activation of NOD2-expressing HEK-293T cells using the indicated compounds grouped by similar structural perturbations. Numbers in parentheses represent calculated pEC50 values. G, Graph of calculated pEC50 values vs. calculated partition coefficient (clogP). Dotted lines show equivalent lipophilic ligand efficiency (LLE) values. Red arrow indicates optimization of the TT007 scaffold to TT030. pEC50 values were derived by a three-parameter dose-response nonlinear regression.
Cell culture. The following cell lines were used and sourced as follows: HEK-Blue NOD2 (InvivoGen, hkb-hnod2), HEK-Blue NOD1 (InvivoGen, hkb-nod1), HEK-Blue Null2 (hkb-null2), and B16-F10 (ATCC CRL-6475). All cell lines were cultured at 37° C. in 5% CO2 in DMEM (ThermoFisher, 11995065) supplemented with 10% fetal bovine serum (FBS), 100 U mL-1 penicillin, and 100 μg mL-1 streptomycin. Cells were maintained at no greater than 70% confluency and subcultured using TrypLE Express. Cell lines were routinely cultured without antibiotics to ensure no bacterial infection and tested for mycoplasma using a Universal Mycoplasma Detection Kit (ATCC 30-1012K). Primary human peripheral mononuclear blood cells (PBMCs) were cultured at 37° C. in 5% CO2 in RPMI 1640 (ThermoFisher, 61870143) supplemented with 10% FBS. All experimental work using human samples was reviewed and approved by the Scripps Research Institutional Review Board (Protocol IRB-21-7816NOD2).
Reporter cell line activation assay. Approximately 24 h before the assay, culture medium for each of the HEK-Blue reporter cell lines was replaced with a 1:1 mixture of DMEM supplemented with 10% FBS and OptiMEM. On the day of the assay, single cell suspensions (150,000 cells/mL) were produced in HEK-Blue detection medium (InvivoGen, hb-det2). Cells were aliquoted at 200 μL per well of a 96-well plate containing 0.2 μL of a 1000× stock of each test compound in DMSO. Cells were then incubated at 37° C. in 5% CO2 for 8-10 h. To measure activity, wells were then gently pipetted up and down to mix the conditioned medium, and absorbance from the colorimetric product of the secreted alkaline phosphatase was measured at 630 nm. In some assays, cells were stimulated for 16 h with compounds as described above in complete DMEM. Then, 20 μL of the conditioned medium was mixed with 180 μL QUANTI-Blue solution (InvivoGen, rep-qbs) and incubated for 2-4 h at 37° C. Activity was then measured by absorbance as described above.

Experiment [2] deals with T1, NOD1. Briefly: NOD1 HEK-Blue NF-κB reporter cell activation assay (NOD1-expressing HEK-293T cells). It is filed as cell-based. Conditions: 10 μM, 16 h (FIG. 5). How it is done: as §1, §2, §3

Read-outs that look alike come from different tables or passages of the source.

T2 sequence (Q9HC29 whole entry): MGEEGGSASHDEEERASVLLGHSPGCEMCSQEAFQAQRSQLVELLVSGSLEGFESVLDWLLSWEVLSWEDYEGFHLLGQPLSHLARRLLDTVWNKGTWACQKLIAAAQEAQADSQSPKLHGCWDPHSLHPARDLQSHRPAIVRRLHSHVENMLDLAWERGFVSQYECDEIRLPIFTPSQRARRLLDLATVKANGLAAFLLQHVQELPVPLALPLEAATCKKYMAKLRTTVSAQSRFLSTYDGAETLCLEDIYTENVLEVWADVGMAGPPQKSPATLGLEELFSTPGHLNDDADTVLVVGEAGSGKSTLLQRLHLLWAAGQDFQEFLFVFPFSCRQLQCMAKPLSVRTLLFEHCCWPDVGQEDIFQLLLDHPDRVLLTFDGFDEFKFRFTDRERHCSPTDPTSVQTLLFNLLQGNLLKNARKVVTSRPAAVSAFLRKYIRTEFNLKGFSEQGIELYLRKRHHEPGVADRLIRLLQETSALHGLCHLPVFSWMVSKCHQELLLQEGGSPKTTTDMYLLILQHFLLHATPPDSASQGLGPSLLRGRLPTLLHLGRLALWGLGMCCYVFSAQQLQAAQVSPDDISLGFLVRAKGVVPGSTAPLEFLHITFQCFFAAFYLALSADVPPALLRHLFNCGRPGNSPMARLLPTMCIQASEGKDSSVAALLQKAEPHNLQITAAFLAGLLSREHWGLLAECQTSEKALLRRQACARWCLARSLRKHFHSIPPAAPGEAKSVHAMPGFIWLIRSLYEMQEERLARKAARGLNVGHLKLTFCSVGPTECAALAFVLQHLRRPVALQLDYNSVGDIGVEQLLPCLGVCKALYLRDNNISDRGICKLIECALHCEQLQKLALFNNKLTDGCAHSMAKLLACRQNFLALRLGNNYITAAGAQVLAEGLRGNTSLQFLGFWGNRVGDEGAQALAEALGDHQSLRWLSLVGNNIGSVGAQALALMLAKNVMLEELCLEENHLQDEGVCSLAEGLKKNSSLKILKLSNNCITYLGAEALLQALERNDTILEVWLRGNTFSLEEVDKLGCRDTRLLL

On to `CCCCCCCCCCCC(=O)N[C@H](CCC(=O)NC(CCCC(N)C(=O)O)C(=O)O)C(=O)O` (stereo partly drawn) [C12-iE-DAP], for which, at NOD1 [1], the “Greater activation of NOD1-dependent NF-κB reporter” value is reported as approximately 100 fold.
With `CCOC(=O)CC[C@@H](NC(=O)[C@@H](NC(=O)c1c(C)nn(-c2ccc(F)cc2)c1C)C(C)C)C(=O)OCC` [TT007, Diethyl (1-(4-fluorophenyl)-3,5-dimethyl-1H-pyrazole-4-carbonyl)-L-valyl-D-glutamate], the “Activation of NULL HEK-Blue NF-κB reporter cells” value with HEK-Blue Null2 was “inactive”. Besides, the “Activation of NOD2-expressing HEK-293T cells, colorimetric assay” value at NOD2 (10 µM, 16 h (FIG. 1E)) was “active”. Moreover, the EC50 at NOD2 (FIG. 1F, read-out: pEC50, dose-dependent NOD2 activation (converted)) was approximately 1 µM; at NOD2 (calculated, three-parameter dose-response nonlinear regression, read-out: pEC50 (μM), dose-dependent activation of NOD2-expressing HEK-293T cells (converted)) it was 1 µM. For the same compound, the “Activation of NOD1 HEK-Blue NF-κB reporter cells” value on NOD1 [2] is “inactive”.
